“And” between values parts separate entries of the source, which are not always exact repeats. Equal values may be shown once.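 Results reflect a 48-hour exposure of cells in 96-well plates to compound at five concentrations. GI50 = concentration required for 50% inhibition of growth. TGI is the concentration that stops growth completely.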
How the values were obtained:
Assay in all cases: inhibition of tumour cell growth, NCI panel, 48 h
[1] = system: MCF7 breast
[2] = system: OVCAR-4 ovarian
[3] = system: CCRF-CEM leukemia
[4] = system: OVCAR-8 ovarian
[5] = system: K-562 leukemia
[6] = system: NCI-H522 lung
[7] = system: UO-31 renal
[8] = system: SF-268 CNS
[9] = system: UACC-62 melanoma
[10] = system: U251 CNS

| Structure (SMILES) | TGI [1] [µM] | TGI [2] | TGI [3] | TGI [4] | TGI [5] [µM] | TGI [6] [µM] | TGI [7] | TGI [8] | TGI [9] | GI50 [1] | GI50 [2] | GI50 [3] | GI50 [10] | TGI [10] | GI50 [4] | GI50 [5] | GI50 [6] | GI50 [7] | GI50 [8] | GI50 [9] |
| --- | --- | --- | --- | --- | --- | --- | --- | --- | --- | --- | --- | --- | --- | --- | --- | --- | --- | --- | --- | --- |
| O=C1CSC(c2cc3cc(Br)ccc3nc2Cl)N1c1ccc(Cl)cc1 (stereo not drawn) | 67.6 | 81.5 µM | 97.6 µM | > 100 µM | > 100 | 57.3 | > 100 µM | > 100 µM | 22.6 µM |  |  |  |  |  |  |  |  |  |  |  |
| O=[N+]([O-])c1ccc(N/N=C\c2cc(Br)ccc2O)nc1 | > 100 | 4.02 µM | > 100 µM | 8.86 µM | > 100 | 3.23 | 2.01 µM | 4.18 µM | 6.15 µM | 0.489 µM | 0.543 µM | 0.314 µM | 0.736 µM | 3.24 µM | 0.415 µM | 0.612 µM | 0.485 µM | 0.376 µM | 0.452 µM | 1.86 µM |
| CC(C)(CCCCC(C)(C)NC1=NCCO1)NC1=NCCO1 | > 10 | > 10 µM | > 10 µM | > 10 µM | > 10 | > 10 | > 10 µM | > 10 µM | > 10 µM |  |  |  |  | > 10 µM |  |  |  |  |  |  |
| COc1ccc(/C=C2\C[C@H]3[C@@H]4CC=C5C[C@@H](O)CC[C@]5(C)[C@H]4CC[C@]3(C)\C2=N\O)cc1 | > 100 | > 100 µM | > 100 µM |  | 45.9 | 50 | 71.6 µM | 46.2 µM | 50.3 µM |  |  |  |  | > 100 µM |  |  |  |  |  |  |
| COC(=O)C1=C(O)C(C(=O)OC)[C@@]2(O)[C@@H](C(=O)OC)[C@H](C)C[C@@H]1[C@@H]2C(=O)OC (stereo partly drawn) | > 100 |  | > 100 µM |  | > 100 | 50.7 | 67.6 µM |  | > 100 µM |  |  |  |  | 53.2 µM |  |  |  |  |  |  |
| NCCc1ccc(S(=O)(=O)O)cc1[N+](=O)[O-] | > 100 | > 100 µM | > 100 µM | > 100 µM | > 100 | > 100 | > 100 µM | > 100 µM | > 100 µM |  |  |  |  | > 100 µM |  |  |  |  |  |  |
| COc1cc2c(cc1OCCCOc1cc3c(cc1OC)C(=O)N1CCC[C@H]1C(=O)N3)N=C[C@@H]1CCCN1C2=O | 27.3 | 42.4 µM |  | > 100 µM | 27.3 | 6.34 | 40.5 µM | > 100 µM | 19.5 µM |  |  |  |  | 38.8 µM |  |  |  |  |  |  |
| C/C=C(/CCC1NCCc2c1[nH]c1ccccc21)[Si](C)(C)C (stereo not drawn) |  | > 100 µM and 11.9 µM | > 100 µM and 11.5 µM | > 100 µM and 24.4 µM | > 100 |  | > 100 µM and 17.3 µM | > 100 µM and 29 µM | > 100 µM and 26.5 µM |  |  |  |  | > 100 µM and 13.6 µM |  |  |  |  |  |  |
| COC(=O)C(C)NP(=O)(OCc1cccc(Cn2cnc3c(N)ncnc32)c1)Oc1ccccc1 (stereo not drawn) | 66.6 | > 100 µM | > 100 µM | > 100 µM | > 100 | > 100 | > 100 µM | > 100 µM | > 100 µM | 14.9 µM | > 100 µM | 50.5 µM | > 100 µM | > 100 µM | > 100 µM | > 100 µM | 36 µM | > 100 µM | 58.4 µM | 56.3 µM |
| O=c1c(-c2ccccc2)c(SCCCN2CCCCC2)n(-c2ccccc2)c(=S)n1-c1ccccc1 | 31.4 | 58 µM | 50.9 µM | 37.9 µM | 34.1 | 41.1 |  |  | 30.1 µM |  |  |  |  | 29.1 µM |  |  |  |  |  |  |
| NC(Cc1cc(I)c(Oc2ccc(O)c(I)c2)c(I)c1)C(=O)O (stereo not drawn) | > 100 | > 100 µM |  | > 100 µM |  | > 100 | > 100 µM | > 100 µM | > 100 µM |  |  |  |  | > 100 µM |  |  |  |  |  |  |
| Fc1ccc2c(c1)SC1=Nc3sc4cc(F)ccc4[n+]3CN12 | > 100 | 72.4 µM |  | 38 µM | 43.9 | 35.2 | 74.3 µM | > 100 µM | 33.1 µM |  |  |  |  | 46.3 µM |  |  |  |  |  |  |
| CC1C(OS(=O)(=O)c2ccc3[nH]c(=S)sc3c2)CC2C3(C)CCC2(C(C)C(=O)O)C(O)C13 (stereo not drawn) | > 100 | 94.2 µM | 65.5 µM | 54.6 µM | > 100 | 17.2 | 39.8 µM | > 100 µM | 63.3 µM |  |  |  |  | 38.6 µM |  |  |  |  |  |  |
| O=c1[nH]c2ccccc2c2oc3ccccc3c12 | > 100 | > 100 µM | > 100 µM | > 100 µM | > 100 | > 100 | > 100 µM | > 100 µM | > 100 µM |  |  |  |  | > 100 µM |  |  |  |  |  |  |
| NCCCCNOCCCN | > 100 | > 100 µM | > 100 µM | > 100 µM | > 100 | > 100 | > 100 µM | > 100 µM | > 100 µM |  |  |  |  | > 100 µM |  |  |  |  |  |  |
| CC1=C(C(=O)NNC(=O)C[N+](C)(C)C)CC(C(=O)NNC(=O)C[N+](C)(C)C)=C(C)N1 | > 100 | > 100 µM | 94 µM | > 100 µM | > 100 | > 100 | > 100 µM | > 100 µM | > 100 µM |  |  |  |  | > 100 µM |  |  |  |  |  |  |
| C(=C\c1cc[n+](CCc2ccccc2)cc1)/c1ccccc1 | > 100 | 50.9 µM | 42.5 µM | 19.5 µM | 63.6 | 45.4 | > 100 µM | 74.5 µM | 22.9 µM |  |  |  |  | 18.9 µM |  |  |  |  |  |  |
| CCc1nc(N)nc(N)c1-c1ccc(N2CCOCC2)c(N=[N+]=[N-])c1 | > 100 | > 100 µM | > 100 µM | > 100 µM | > 90.6 | 37.9 | > 100 µM | > 100 µM | > 100 µM |  |  |  |  | > 100 µM |  |  |  |  |  |  |
| CC(C)(C)OC(=O)CC(NC(=O)OCc1ccccc1)NC(=O)OC(C)(C)C (stereo not drawn) |  |  |  |  |  |  |  |  |  | 44.1 µg/mL | 78.9 µg/mL | 35.4 µg/mL | 67.5 µg/mL |  | 57.5 µg/mL | 38.2 µg/mL | 32.9 µg/mL | 27 µg/mL | 87.1 µg/mL | 57.2 µg/mL |
| COc1cc(S(=O)(=O)Nc2nc(-c3ccc(N=Cc4ccccc4O)cc3)cs2)ccc1Cl | > 100 | > 100 µM | > 100 µM | > 100 µM | > 100 | > 100 | > 100 µM | > 100 µM | 75.9 µM |  |  |  |  | > 100 µM |  |  |  |  |  |  |
| CC(C)C(=O)Cc1ccc2ccccc2n1 | > 100 | > 100 µM | > 100 µM | > 100 µM |  | > 100 | > 100 µM | > 100 µM | > 100 µM |  |  |  |  | > 100 µM |  |  |  |  |  |  |
| CCOC(=O)c1c(C)n(-c2ccc(C)cc2)c(=O)c2ccccc2c(=O)c2c(=O)ccc(=O)c1=2 | 63.9 | 58.5 µM | > 100 µM | 33.6 µM | 32.1 | 42.6 | > 100 µM | 54.2 µM | 52 µM |  |  |  |  | 44.9 µM |  |  |  |  |  |  |
| O=c1c2ccccc2nc2n1CCc1c-2[nH]c2ccccc12 |  | 43.8 µM | > 100 µM | 71.8 µM | > 100 |  | 28.1 µM | 75.2 µM |  |  | 18.9 µM | 18.9 µM |  | 28.6 µM |  |  |  |  |  |  |
| CC(=O)Nc1ccc2c(c1)C(=O)c1ccccc1-2 |  |  | > 100 µM | > 100 µM | > 100 | > 100 | > 100 µM | > 100 µM | > 100 µM |  |  |  |  | > 100 µM |  |  |  |  |  |  |
| COc1cc(CCN)c(OC)c(OC)c1 | > 100 | > 100 µM | > 100 µM | > 100 µM | > 100 | > 100 | > 100 µM | > 100 µM | > 100 µM |  |  |  |  | > 100 µM |  |  |  |  |  |  |
| O=S1(=O)C(=C(c2ccccc2)c2ccccc2)S(=O)(=O)c2ccccc21 | > 100 | > 100 µM | > 100 µM | > 100 µM | > 100 | > 100 | > 100 µM | > 100 µM | > 100 µM |  |  |  |  | > 100 µM |  |  |  |  |  |  |

Source: PubChem BioAssay (NCI)
